Values quoted from earlier work, collected in patent publication US20160082159A1, “BALLOON SURFACE COATING” (priority 2013, published 2016).

Conditions: in humans

For CC(=O)O[C@H]1C(=O)[C@@]2(C)[C@H]([C@H](OC(=O)c3ccccc3)[C@]3(O)C[C@H](OC(=O)[C@H](O)[C@@H](NC(=O)c4ccccc4)c4ccccc4)C(C)=C1C3(C)C)[C@]1(OC(C)=O)CO[C@@H]1C[C@@H]2O [paclitaxel], the “normal plasma half-life of paclitaxel” value is listed as “approximately 60 min”.
